≈ marks a conversion by molar mass, not a printed value.
Columns and labels:
Assay in all cases: MIC, broth micro dilution assay (NCCLS)
Format in all cases: cell-based
[1] = tested on: Enterococcus faecalis A20688; settings: Mueller-Hinton medium, 35° C., 18 hours
Protocol: (§1) The serial broth dilution method used Mueller-Hinton medium except for the Streptococcus pneumoniae which was tested in 50% Mueller-Hinton medium and 50% Todd Hewitt medium. The final bacterial inoculate contained approximately 5×10^5 cfu/well and was run on microtiter plates. The volume of each well was 100 μL and the plates were incubated at 35° C. for 18 hours in ambient air. The MIC was defined as the lowest drug concentration that prevented visible growth.

[2] = tested on: Streptococcus pneumoniae A28272; settings: 50% Mueller-Hinton medium and 50% Todd Hewitt medium, 35° C., 18 hours
Protocol: as §1

[3] = tested on: Staphylococcus aureus A15090; settings: Mueller-Hinton medium, 35° C., 18 hours
Protocol: as §1

| SMILES | MIC (μg/mL) Enterococcus faecalis A20688 [1] [µg/mL] | MIC (μg/mL) Streptococcus pneumoniae A28272 [2] [µg/mL] | MIC (μg/mL) Staphylococcus aureus A15090 [3] [µg/mL] |
| --- | --- | --- | --- |
| C=C(NC(=O)c1csc(-c2nc3c(cc2O)-c2nc(cs2)C(=O)NC(C(C)O)C(=O)NC(=C(C)OC)c2nc(cs2)C(=O)NC2c4nc(cs4)C(=O)NC(COC(=O)c4c5c6c(cccc6n4OCCO)COC(=O)C(OC4CC(C)(O)C(N(C)C)C(C)O4)C2OC5)c2nc-3cs2)n1)C(N)=O (stereo not drawn) [Example 36] | 0.25 (≈ 0.169 µM) | 0.007 (≈ 0.00472 µM) | 0.25 (≈ 0.169 µM) |
| COC(C)=C1NC(=O)C(C(C)O)NC(=O)c2csc(n2)-c2cc(O)c(-c3nc(C(N)=O)cs3)nc2-c2csc(n2)C2COC(=O)c3c4c5c(cccc5n3OCCCCS(=O)(=O)O)COC(=O)C(OC3CC(C)(O)C(N(C)C)C(C)O3)C(OC4)C(NC(=O)c3csc1n3)c1nc(cs1)C(=O)N2 (stereo not drawn) [Example 59] | >128 | 0.5 (≈ 0.332 µM) | 16 (≈ 10.6 µM) |
| C=C(NC(=O)c1csc(-c2nc3c(cc2OCC(O)CO)-c2nc(cs2)C(=O)NC(C(C)O)C(=O)NC(=C(C)OC)c2nc(cs2)C(=O)NC2c4nc(cs4)C(=O)NC(COC(=O)c4c5c6c(cccc6n4O)COC(=O)C(OC4CC(C)(O)C(N(C)C)C(C)O4)C2OC5)c2nc-3cs2)n1)C(N)=O (stereo not drawn) [Example 3] | 2.0 (≈ 1.32 µM) | 0.25 (≈ 0.165 µM) | 1.0 (≈ 0.662 µM) |
| C=C(NC(=O)c1csc(-c2nc3c(cc2O)-c2nc(cs2)C(=O)NC(C(C)O)C(=O)NC(=C(C)OC)c2nc(cs2)C(=O)NC2c4nc(cs4)C(=O)NC(COC(=O)c4c5c6c(cccc6n4OCC(=O)OC)COC(=O)C(OC4CC(C)(O)C(N(C)C)C(C)O4)C2OC5)c2nc-3cs2)n1)C(N)=O (stereo not drawn) [Example 37] | 0.06 (≈ 0.0397 µM) | 0.001 (≈ 0.000662 µM) | 0.03 (≈ 0.0199 µM) |
| C=C(NC(=O)c1csc(-c2nc3c(cc2O)-c2nc(cs2)C(=O)NC(C(C)O)C(=O)NC(=C(C)OC)c2nc(cs2)C(=O)NC2c4nc(cs4)C(=O)NC(COC(=O)c4c5c6c(cccc6n4OCCCNS(=O)(=O)N(C)C)COC(=O)C(OC4CC(C)(O)C(N(C)C)C(C)O4)C2OC5)c2nc-3cs2)n1)C(N)=O (stereo not drawn) [Example 49] | 0.25 (≈ 0.156 µM) | 0.007 (≈ 0.00437 µM) | 0.5 (≈ 0.312 µM) |
| COC(C)=C1NC(=O)C(C(C)O)NC(=O)c2csc(n2)-c2cc(OCC(=O)OC(C)(C)C)c(-c3nc(C(N)=O)cs3)nc2-c2csc(n2)C2COC(=O)c3c4c5c(cccc5n3OCC(=O)OC(C)(C)C)COC(=O)C(OC3CC(C)(O)C(N(C)C)C(C)O3)C(OC4)C(NC(=O)c3csc1n3)c1nc(cs1)C(=O)N2 (stereo not drawn) [Example 82] | 0.06 (≈ 0.0376 µM) | 0.015 (≈ 0.00939 µM) | 0.03 (≈ 0.0188 µM) |
| C=C(NC(=O)c1csc(-c2nc3c(cc2OP(=O)(O)OCCCl)-c2nc(cs2)C(=O)NC(C(C)O)C(=O)NC(=C(C)OC)c2nc(cs2)C(=O)NC2c4nc(cs4)C(=O)NC(COC(=O)c4c5c6c(cccc6n4OP(=O)(O)OCCCl)COC(=O)C(OC4CC(C)(O)C(N(C)C)C(C)O4)C2OC5)c2nc-3cs2)n1)C(N)=O (stereo not drawn) [Example 86] | 4.0 (≈ 2.32 µM) | 0.5 (≈ 0.29 µM) | 4.0 (≈ 2.32 µM) |
| C=C(NC(=O)c1csc(-c2nc3c(cc2OCC(=O)O)-c2nc(cs2)C(=O)NC(C(C)O)C(=O)NC(=C(C)OC)c2nc(cs2)C(=O)NC2c4nc(cs4)C(=O)NC(COC(=O)c4c5c6c(cccc6n4OCC(=O)O)COC(=O)C(OC4CC(C)(O)C(N(C)C)C(C)O4)C2OC5)c2nc-3cs2)n1)C(N)=O.O=C(O)C(F)(F)F (stereo not drawn) [Example 20] | >128 | 0.5 | 16 |
| C=C(NC(=O)c1csc(-c2nc3c(cc2OCC(=O)NCCNC(=O)OC(C)(C)C)-c2nc(cs2)C(=O)NC(C(C)O)C(=O)NC(=C(C)OC)c2nc(cs2)C(=O)NC2c4nc(cs4)C(=O)NC(COC(=O)c4c5c6c(cccc6n4OCC(=O)NCCNC(=O)OC(C)(C)C)COC(=O)C(OC4CC(C)(O)C(N(C)C)C(C)O4)C2OC5)c2nc-3cs2)n1)C(N)=O (stereo not drawn) [Example 69] | 64 (≈ 34.8 µM) | 0.25 (≈ 0.136 µM) | 16 (≈ 8.7 µM) |
| C=C(NC(=O)c1csc(-c2nc3c(cc2OCC(N)=O)-c2nc(cs2)C(=O)NC(C(C)O)C(=O)NC(=C(C)OC)c2nc(cs2)C(=O)NC2c4nc(cs4)C(=O)NC(COC(=O)c4c5c6c(cccc6n4OCOCC[Si](C)(C)C)COC(=O)C(OC4CC(C)(O)C(N(C)C)C(C)O4)C2OC5)c2nc-3cs2)n1)C(N)=O (stereo not drawn) [Example 78] | 16 (≈ 9.85 µM) | 0.06 (≈ 0.0369 µM) | 64 (≈ 39.4 µM) |
| C=C(NC(=O)c1csc(-c2nc3c(cc2O)-c2nc(cs2)C(=O)NC(C(C)O)C(=O)NC(=C(C)OC)c2nc(cs2)C(=O)NC2c4nc(cs4)C(=O)NC(COC(=O)c4c5c6c(cccc6n4OCCN4CCOCC4)COC(=O)C(OC4CC(C)(O)C(N(C)C)C(C)O4)C2OC5)c2nc-3cs2)n1)C(N)=O.O=C(O)C(F)(F)F (stereo not drawn) [Example 27] | 0.06 | 0.015 | 0.25 |
| COC(C)=C1NC(=O)C(C(C)O)NC(=O)c2csc(n2)-c2cc(OC)c(-c3nc(C(N)=O)cs3)nc2-c2csc(n2)C2COC(=O)c3c4c5c(cccc5n3OC)COC(=O)C(OC3CC(C)(O)C(N(C)C)C(C)O3)C(OC4)C(NC(=O)c3csc1n3)c1nc(cs1)C(=O)N2 (stereo not drawn) [Example 83] | 0.06 (≈ 0.043 µM) | 0.03 (≈ 0.0215 µM) | 0.03 (≈ 0.0215 µM) |
| C=C(NC(=O)c1csc(-c2nc3c(cc2OC(C)=O)-c2nc(cs2)C(=O)NC(C(C)O)C(=O)NC(=C(C)OC)c2nc(cs2)C(=O)NC2c4nc(cs4)C(=O)NC(COC(=O)c4c5c6c(cccc6n4O)COC(=O)C(OC4CC(C)(O)C(N(C)C)C(C)O4)C2OC5)c2nc-3cs2)n1)C(N)=O.Cl (stereo not drawn) [Example 24] | 0.015 | 0.03 | 0.03 |
| C=C(NC(=O)c1csc(-c2nc3c(cc2O)-c2nc(cs2)C(=O)NC(C(C)O)C(=O)NC(=C(C)OC)c2nc(cs2)C(=O)NC2c4nc(cs4)C(=O)NC(COC(=O)c4c5c6c(cccc6n4OC(=O)NCCCN4CCN(C)CC4)COC(=O)C(OC4CC(C)(O)C(N(C)C)C(C)O4)C2OC5)c2nc-3cs2)n1)C(N)=O (stereo not drawn) [Example 16] | 0.003 (≈ 0.00185 µM) | 0.0005 (≈ 0.000308 µM) | 0.003 (≈ 0.00185 µM) |
| C=C(NC(=O)c1csc(-c2nc3c(cc2O)-c2nc(cs2)C(=O)NC(C(C)O)C(=O)NC(=C(C)OC)c2nc(cs2)C(=O)NC2c4nc(cs4)C(=O)NC(COC(=O)c4c5c6c(cccc6n4OCOP(=O)(OCC)OCC)COC(=O)C(OC4CC(C)(O)C(N(C)C)C(C)O4)C2OC5)c2nc-3cs2)n1)C(N)=O (stereo not drawn) [Example 41] | 0.03 (≈ 0.0187 µM) | 0.001 (≈ 0.000624 µM) | 0.015 (≈ 0.00935 µM) |
| C=C(NC(=O)c1csc(-c2nc3c(cc2O)-c2nc(cs2)C(=O)NC(C(C)O)C(=O)NC(=C(C)OC)c2nc(cs2)C(=O)NC2c4nc(cs4)C(=O)NC(COC(=O)c4c5c6c(cccc6n4OC(=O)NCCOCCOCCOCCOC)COC(=O)C(OC4CC(C)(O)C(N(C)C)C(C)O4)C2OC5)c2nc-3cs2)n1)C(N)=O (stereo not drawn) [Example 62] | 0.125 (≈ 0.0748 µM) | 0.015 (≈ 0.00898 µM) | 0.125 (≈ 0.0748 µM) |
| C#CCOc1cc2c(nc1-c1nc(C(=O)NC(=C)C(N)=O)cs1)-c1csc(n1)C1COC(=O)c3c4c5c(cccc5n3OCC#C)COC(=O)C(OC3CC(C)(O)C(N(C)C)C(C)O3)C(OC4)C(NC(=O)c3csc(n3)C(=C(C)OC)NC(=O)C(C(C)O)NC(=O)c3csc-2n3)c2nc(cs2)C(=O)N1 (stereo not drawn) [Example 75] | 0.06 (≈ 0.0396 µM) | 0.0005 (≈ 0.00033 µM) | 0.03 (≈ 0.0198 µM) |
| C=C(NC(=O)c1csc(-c2nc3c(cc2OP(=O)(OCc2ccccc2)OCc2ccccc2)-c2nc(cs2)C(=O)NC(C(C)O)C(=O)NC(=C(C)OC)c2nc(cs2)C(=O)NC2c4nc(cs4)C(=O)NC(COC(=O)c4c5c6c(cccc6n4O)COC(=O)C(OC4CC(C)(O)C(N(C)C)C(C)O4)C2OC5)c2nc-3cs2)n1)C(N)=O (stereo not drawn) [Example 34] | 1.0 (≈ 0.589 µM) | 0.125 (≈ 0.0736 µM) | 0.25 (≈ 0.147 µM) |
| C=C(NC(=O)c1csc(-c2nc3c(cc2O)-c2nc(cs2)C(=O)NC(C(C)O)C(=O)NC(=C(C)OC)c2nc(cs2)C(=O)NC2c4nc(cs4)C(=O)NC(COC(=O)c4c5c6c(cccc6n4OC(=O)N(C)CCO)COC(=O)C(OC4CC(C)(O)C(N(C)C)C(C)O4)C2OC5)c2nc-3cs2)n1)C(N)=O (stereo not drawn) [Example 61] | 0.03 (≈ 0.0195 µM) | 0.0005 (≈ 0.000325 µM) | 0.03 (≈ 0.0195 µM) |

From patent publication US7022667B2, “O-derivatized nocathiacin derivatives” (Bristol-Myers Squibb Company, priority 2002, dated 2006)
